In patent publication US20240174693A1, “SOMATOSTATIN RECEPTOR SUBTYPE 4 (SSTR4) AGONISTS AND THEIR APPLICATIONS” (Humanwell Pharmaceutical US, priority 2022, published 2024):

Columns and labels:
Type in all cases: in vitro ADME
CYP1A2 = target: T1, CYP1A2 (Homo sapiens, UniProt P05177); experiment: CYP inhibition in HLM, CYP1A2; details: read-out: CYP inhibition (IC50 um) 1A2
T1 construct: from tissue; host or cells: liver microsomes (HLM)
T1 sequence (P05177 1-516): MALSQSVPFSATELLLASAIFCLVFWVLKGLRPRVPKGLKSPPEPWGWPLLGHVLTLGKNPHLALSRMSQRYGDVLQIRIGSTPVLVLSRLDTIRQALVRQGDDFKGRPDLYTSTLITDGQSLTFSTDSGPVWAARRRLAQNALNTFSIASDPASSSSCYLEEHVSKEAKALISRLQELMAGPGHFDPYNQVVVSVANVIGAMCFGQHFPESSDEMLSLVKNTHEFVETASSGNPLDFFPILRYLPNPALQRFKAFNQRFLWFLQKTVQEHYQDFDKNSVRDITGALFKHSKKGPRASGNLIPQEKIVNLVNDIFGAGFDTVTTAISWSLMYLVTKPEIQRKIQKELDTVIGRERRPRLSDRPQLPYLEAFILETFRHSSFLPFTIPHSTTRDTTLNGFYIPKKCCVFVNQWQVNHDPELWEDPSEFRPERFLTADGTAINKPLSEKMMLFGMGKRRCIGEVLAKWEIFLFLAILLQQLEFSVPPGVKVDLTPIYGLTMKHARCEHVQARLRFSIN
Procedure: (§1) 0.1 M potassium phosphate buffer (K-buffer), pH 7.4 was preheated. K-buffer was prepared by mixing 9.5 mL Stock A into 40.5 mL Stock B. The total volume was brought to 500 mL with Milli-Q water. The buffer was titrated with KOH or H3PO4 to pH 7.4. Stock A (1 M monobasic potassium phosphate) was prepared by adding 136.5 g of monobasic potassium phosphate into 1 L of Milli-Q water. Stock B (1 M dibasic potassium phosphate) was prepared by adding 174.2 g of dibasic potassium phosphate in 1 L of Milli-Q water.
(§2) Serial dilution for test compound and reference inhibitors (400×) was prepared in a 96-well plate. 8 μL of 10 mM test compounds was transferred to 12 μL of ACN. Inhibitor spiking solution was prepared for CYP1A2, CYP2C9 and CYP2D6 in cocktail by adding 12 μL of 1 mM α-Naphthoflavon, 10 μL of 40 mM Sulfaphenazole, 10 μL of 10 mM Quinidine, and 8 μL of DMSO. Individual inhibitor spiking solution for CYP3A4 and CYP2C19 was prepared by adding 8 μL of DMSO stock to 12 μL of ACN. 1:3 serial dilutions were performed in DMSO:ACN mixture (v/v: 40:60).
(§3) NADPH cofactor was prepared by dissolving 66.7 mg NADPH in 10 mL 0.1 M K-buffer, pH7.4. 4×substrate (2 mL for each isoform) was prepared. HLM was added were required on ice. 0.2 mg/mL HLM solution was prepared using 10 μL of 20 mg/mL to 990 μL of 0.1 M K-buffer on ice. 400 μL of 0.2 mg/mL HLM were added to the assay wells and then 2 μL of 400×test compound set were added into the designated wells on ice. 200 μL of 0.2 mg/mL HLM was added to the assay wells and followed by 1 μL of serially diluted reference inhibtor solution into the designated wells on ice. The following solutions were added in duplicated in a 96-well plate on ice: 30 μL of 2×test compound and reference compound in 0.2 mg/mL HLM solution and 15 μL of 4×substrate solution. The 96-well assay plate and NADPH solution were pre-incubated at 37° C. for 5 minutes. 15 μL of pre-warmed 8 mM NADPH solution was added to into the assay plates to initiate the reaction. The assay plate was incubated at 37° C. 5 mins, 10 mins, and 45 mins. […]

CYP2C19 = target: T2, CYP2C19 (Homo sapiens, UniProt P33261); experiment: CYP inhibition in HLM, CYP2C19; details: read-out: CYP inhibition (IC50 um) 2C19
T2 construct: from tissue; host or cells: liver microsomes (HLM)
Procedure: as §1, §2, §3

RBC partitioning study = details: rat
Procedure: 0.05 M sodium phosphate buffer, pH 7.4 was prepared using the following steps. Stock A, stock B, and stock C solutions were prepared by adding 156 g of monobasic sodium phosphate in 1 L of Milli-Q water (1.0 M), 142 g of dibasic sodium phosphate in 1 L of Milli-Q water (1.0 M), and 58.5 g of sodium chloride in 1 L of Milli-Q water (1.0 M) respectively. 20.25 mL of Stock B and 4.75 mL of Stock A were added to 35 mL of Stock C and the total volume was brought to near 500 mL with Milli-Q water. The resulting buffer solution was titrated with NaOH or H3PO4 to pH 7.4 and the total volume was brought to 500 mL. The 0.05 M sodium phosphate buffer was preheated at 37° C.
Fresh blank plasma preparation and hematocrit determination. A tube containing whole blood was centrifuged at 4000 rpm for 10 minuts. The plasma was harvested was stored. Hematocrit (the volume of red blood cells to the total volume of whole blood) was determined using the formula:
Hematocrit=Vred cells/Vblood=(Vblood−Vplasma)/Vblood
Vblood: the volume of whole blood applied
Vplasma: the volume of plasma measured after centrifugation
Preparation of reference and test compound spiking solutions in plasma. 1.25 mM spiking solution A was prepared by adding add 10 μL of 10 mM reference into 70 μL of plasma (8-fold dilution).
Preparation of reference and test compound in whole blood and plasma. For whole blood samples, 12 μL of spiking solution B (prepared above) was added to 288 μL of whole blood (25-fold dilution). For plasma samples, 6 μL of spiking solution B was added to 144 μL of plasma (25-fold dilution). The assay procedure used is as follows. The assay plate was placed in an incubator at 37° C. for 60 minutess. 300 μL of compound spiking solution in whole blood from above was removed and centrifuged at 4000 rpm for 10 minutes. Subsequently plasma was harvested. 50 μL of plasma sample was removed and 150 μL of acetonitrile (containing IS) was added and vortexed for 5 min. The sample was centrifuged at 6000 rpm for 15 minutes. The supernatant was removed and analyzed by LC/MS.

T2 sequence (P33261 whole entry): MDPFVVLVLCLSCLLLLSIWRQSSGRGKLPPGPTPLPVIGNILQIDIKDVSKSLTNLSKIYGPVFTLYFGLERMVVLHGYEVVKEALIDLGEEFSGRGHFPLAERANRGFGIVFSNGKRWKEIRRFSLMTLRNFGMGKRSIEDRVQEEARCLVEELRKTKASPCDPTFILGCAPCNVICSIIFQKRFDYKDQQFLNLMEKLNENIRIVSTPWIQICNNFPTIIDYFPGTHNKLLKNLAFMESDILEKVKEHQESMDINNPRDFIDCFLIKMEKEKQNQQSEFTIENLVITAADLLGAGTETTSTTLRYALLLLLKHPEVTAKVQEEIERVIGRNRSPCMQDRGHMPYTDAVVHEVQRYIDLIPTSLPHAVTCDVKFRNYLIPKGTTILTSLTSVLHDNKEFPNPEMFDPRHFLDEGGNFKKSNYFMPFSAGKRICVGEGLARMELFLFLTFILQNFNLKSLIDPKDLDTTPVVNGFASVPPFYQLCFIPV

| RBC Partitioning Study KBlood/PL (RBC partitioning study) | SMILES | IC50 (CYP1A2) [µM] | IC50 (CYP2C19) [µM] | RBC Partitioning Study KRBC/PL (RBC partitioning study) |
| --- | --- | --- | --- | --- |
| – | CC(C)(NC(=O)[C@H]1[C@@H]2CNC[C@H]1C2)c1ncc2c(Cl)cccn12 [Compound 7, (1R,5S,6r)-N-(2-(8-chloroimidazo[1,5-a]pyridin-3-yl)propan-2-yl)-3-azabicyclo[3.1.1]heptane-6-carboxamide] | > 10 | > 10 | 1.15 |
| – | CC(C)(NC(=O)[C@H]1[C@@H]2CNC[C@H]1C2)c1ncc2c(Br)cccn12 [Compound 8, (1R,5S,6r)-N-(2-(8-bromoimidazo[1,5-a]pyridin-3-yl)propan-2-yl)-3-azabicyclo[3.1.1]heptane-6-carboxamide] | > 10 | > 10 | 0.94 |
| 1.05 | CC(C)(NC(=O)[C@H]1[C@@H]2CNC[C@H]1C2)c1nc(C2CC2)c2ccccn12 [Compound 9, (1R,5S,6r)-N-(2-(1-cyclopropylimidazo[1,5-a]pyridin-3-yl)propan-2-yl)-3-azabicyclo[3.1.1]heptane-6-carboxamide] | > 10 | > 10 | 1.09 |
